{"source": "patent US12661404B2", "about": "“Methods and materials for tissue ablation” (Mayo Foundation for Medical Education and Research, priority 2020, dated 2026)", "key": {"N1S1 liver tumors": {"tested_on": "N1S1 liver tumors", "assay": "Intratumoral injection of LATTE in N1S1 rat model of liver cancer", "format": "in vivo", "procedure": "All procedures were approved by the institutional animal care and use committee and performed according to institutional guidelines. […] N1S1 cells were maintained in suspension in a 75 cm^2 culture flasks at 37° C. in a 5% CO2 humidified chamber. […] To prepare the cells for inoculation, N1S1 cell aliquots were rinsed and suspended in plain IMDM (without antibiotics or serum) to yield 2×10^6 cells in 100 μL of fresh aliquots for each inoculation. The rat liver was surgically exposed through upper midline laparotomy under isoflurane anesthesia followed by subcapsular inoculation of N1S1 cells into the left liver lobe. Gentle compression with gauze for hemostasis was used to prevent cell reflux. The abdominal incision was closed using interrupted Vicryl sutures for abdominal muscle and subcuticular suture for the skin, followed by the application of Vetbond tissue adhesive (3M, St. Paul, MN) followed by recovery from anesthesia. Intratumoral injection of the ionic liquid mixture was performed in three groups of rats bearing 0.5 cm^3 N1S1 tumor lesions measured with ultrasound. […] All solutions contained 0.25 mg/mL indocyanine green (ICG, Sigma-Aldrich, St. Louis, MO) solubilized in normal saline. Following intratumoral injections, treated rats were allowed to survive for 2 weeks after treatment, and tumor volume was documented using ultrasound. N1S1 tumor progression and treatment response was assessed using percutaneous ultrasonography. Selected focal zone depth, gain, and tissue harmonic settings were optimized during the acquisition of the initial imaging at baseline, and the same parameters were applied during acquisition after intratumoral injection of LATTE mixture. Serial ultrasound examinations were performed on rat livers following N1S1 inoculation to confirm tumor formation and assess tumor volume. Rats were anesthetized using a gas mixture of 2-3% isoflurane in 100% oxygen via a nose cone. Rats were secured in a supine position on an electronically controlled warming platform to maintain the temperature at 37° C. during the imaging procedure. The abdominal area was shaved and prepped with depilatory cream (Nair, Church& Dwight Co. INC). Initially, abdominal sonography was performed to delineate tumor mass boundaries in grayscale (B-mode) using ACUSON 52000 system (Siemens Inc., Germany) and a multi-frequency linear transducer (9L4, 9.0 MHz). The transducer was positioned to obtain 2D scans via the subcostal window to document liver tumors and measure lesion diameter. […] Tumor volumes were calculated as following: V=(4/3)×π×(1/2) SI×(1/2)LM×1/2 AP. Color Doppler images were also acquired to detect the distribution of the tumor blood flow weekly.\n(§1) To visualize normal liver parenchyma on CT imaging, rats received a bolus injection of 400 μL of the alkaline earth metal-based nanoparticle suspension, Exitron nano 12000 (Miltenyi Biotec, Auburn, CA) two hours prior to micro-CT scanning. Rats were anesthetized using inhalation of 2-3% isoflurane in 100% 02 at a constant flow rate of 2 L/minute and placed on a cassette equipped with a warming system and continuous gas exchange and integrated real-time motion detection camera. Fixed rat tissues were placed and immobilized using styrofoam beads inside a humidified plastic chamber. […] The 3D image stacks were reconstructed using NRecon software and InstaRecon CBR Server (version: 1.7.4.6, Bruker, Kontich, Belgium) following adjustment of random movements, beam-hardening correction, and ring artifact reduction and smoothing. 3D volume rendering was visualized using CTVox software (version: 3.3. 0 r1383, Bruker, Kontich, Belgium). The stacks were virtually rotated and axially oriented to yield transverse projections of select volume of interest (VOI) using Data Viewer software (Bruker, Kontich, Belgium)."}, "VX2 liver tumor": {"tested_on": "VX2 liver tumor", "procedure": "as §1"}, "fat cells (adipocytes)": {"tested_on": "fat cells (adipocytes)", "assay": "Explanted pig fat tissue incubated with LATTE", "conditions": "after 1 hour in LATTE solution"}, "pig blood": {"tested_on": "pig blood", "procedure": "(§2) The effect of IL on coagulation and cell death in blood was evaluated in vitro. To evaluate the effect of cell death along the margins of the ablation zone, specifically on the effect of IL on inflammatory cells, blood treated with low concentrations of IL was used to simulate concentrations along the ablation margins. To analyze the effect of the ionic liquid on blood coagulation, RBC hemolysis, and immune cells, analyses including rheometry, hemolyses assay, complete blood counts were performed on blood smears following incubation of pig blood aliquots with various concentrations of IL."}, "pig blood cells": {"tested_on": "pig blood cells", "procedure": "as §2"}, "[1]": {"tested_on": "freshly resected human tumors", "conditions": "25%-LATTE mixed with ICG, 24 hours at 37° C., 12 tumors", "procedure": "The fluorescent intensity and diffusion area were calculated using similar parameters for all tissues. […] LATTE was able to ablate a variety of highly malignant human tumors.\nExplanted human cancer tissues were collected following surgical resection and placed in RPMI medium for preservation. […] Near-infrared fluorescent imaging (NIRF) was performed at 5 minutes after injection. […] Tissues were transected to reveal the ablated zone were fixed in 10% buffered formalin, embedded in paraffin, then sectioned and subsequently stained with hematoxylin and eosin for microscopic evaluation."}}, "note": "Read-outs that look alike come from different tables or passages of the source."}
{"substance": "choline-geranate [LATTE]", "values": [{"measurement": "tumor volume by micro-CT vs saline", "setting": "N1S1 liver tumors; 2 weeks post-treatment", "result": "substantially smaller tumor volumes"}, {"measurement": "tumor size on gray-scale US, smaller than saline injected group", "setting": "N1S1 liver tumors; 25%-LATTE intratumoral, two weeks", "result": 5, "unit": "fold"}, {"measurement": "CD68-expressing macrophages, increase", "setting": "N1S1 liver tumors; tumor sections, two weeks", "result": 16, "unit": "fold"}, {"measurement": "number of apoptotic (cleaved Caspase-3) cells, higher than saline group", "setting": "N1S1 liver tumors; tumor sections, two weeks", "result": 24, "unit": "fold"}, {"measurement": "treatment response on micro-CT review by radiologist, size criteria", "setting": "N1S1 liver tumors; two weeks", "result": "complete treatment response"}, {"measurement": "tumor histology (H&E)", "setting": "N1S1 liver tumors; two weeks", "result": "complete tumor necrosis"}, {"measurement": "morphometric analysis of tumor size and cell count", "setting": "N1S1 liver tumors; two weeks, vs saline", "result": "significant reduction in tumor size and cell count"}, {"measurement": "proliferating (PCNA) cells", "setting": "N1S1 liver tumors; two weeks, vs saline", "result": "markedly reduced number of proliferating cells"}, {"measurement": "CD3+ T-lymphocyte infiltration", "setting": "N1S1 liver tumors; within treated tumor margin, two weeks", "result": "enhanced CD3+T-lymphocyte infiltration"}, {"measurement": "tumor histology", "setting": "VX2 liver tumor; compared to saline injected tumors", "result": "extensive necrosis"}, {"measurement": "tumor perfusion (Doppler, laser speckle)", "setting": "VX2 liver tumor; following injection", "result": "markedly diminished perfusion"}, {"measurement": "fat depletion from adipocytes", "setting": "fat cells (adipocytes)", "result": "fat was depleted"}, {"measurement": "liver histology", "setting": "pig liver; 2 mL of 25% LATTE mixed with ICG", "result": "total destruction of tissue architecture"}, {"measurement": "ablation zone size", "setting": "pig liver; transcutaneous injection in pigs", "result": "up to 4 cm"}, {"measurement": "blood coagulation initiation lag time (tlag)", "setting": "pig blood; 0.78% IL", "result": "slight increase in lag time"}, {"measurement": "decrease in storage modulus (G′) at 30 minutes", "setting": "pig blood; 0.78% IL", "result": "~20", "unit": "%"}, {"measurement": "blood coagulation initiation lag time (tlag)", "setting": "pig blood; 1.56 wt % IL", "result": "significantly extended lag time"}, {"measurement": "drop in storage modulus (G′) at 30 minutes", "setting": "pig blood; 1.56 wt % IL", "result": 95, "unit": "%"}, {"measurement": "coagulation during 30 minutes testing period", "setting": "pig blood; 3.12 wt % IL", "result": "failed to coagulate"}, {"measurement": "decrease in storage modulus (G′) at 30 minutes", "setting": "pig blood; 3.12 wt % IL", "result": 100, "unit": "wt %"}, {"measurement": "red blood cells (RBC) total count", "setting": "pig blood cells; 0.78, 1.56, 3.12 wt % IL", "result": "concentration dependent decrease"}, {"measurement": "white blood cells (WBC) total count", "setting": "pig blood cells; 0.78, 1.56, 3.12 wt % IL", "result": "concentration dependent decrease"}, {"measurement": "lymphocyte count", "setting": "pig blood cells; 0.78, 1.56, 3.12 wt % IL, compared to control", "result": "no change in lymphocyte count"}, {"measurement": "hemolysis test", "setting": "pig blood cells; 0.78-25 wt % IL", "result": "significant increase in hemolysis"}, {"measurement": "hemolysis on stained blood smears", "setting": "pig blood cells; 3.12 wt % IL", "result": "complete hemolysis"}, {"measurement": "tumor tissue histology", "setting": "[1]", "result": "marked tissue destruction"}]}
